Data as given in publication PMC6646865, “Design and Synthesis of Imidazole and Triazole Pyrazoles as Mycobacterium Tuberculosis CYP121A1 Inhibitors” (ChemistryOpen, 2019).
In brackets after ≈: the same amount, converted by molar mass. Like-named read-outs stand apart in the source and are kept apart here.

Legend:
CYP121A1 [1] = target: T1, CYP121A1 (Mycobacterium tuberculosis, UniProt P9WPP7); test: biochemical; format: binding; settings: for Soret peak shift: Soret maximum ligand-free to ligand-bound CYP121A1; for Kd: UV-vis optical titration, 3–5 μM CYP121A1, 25 °C, pH 7.85, triplicate; for Soret maxima shifting by: extent of the Soret absorbance red shift on binding
T1 construct: made in house
T1 sequence (P9WPP7 whole entry): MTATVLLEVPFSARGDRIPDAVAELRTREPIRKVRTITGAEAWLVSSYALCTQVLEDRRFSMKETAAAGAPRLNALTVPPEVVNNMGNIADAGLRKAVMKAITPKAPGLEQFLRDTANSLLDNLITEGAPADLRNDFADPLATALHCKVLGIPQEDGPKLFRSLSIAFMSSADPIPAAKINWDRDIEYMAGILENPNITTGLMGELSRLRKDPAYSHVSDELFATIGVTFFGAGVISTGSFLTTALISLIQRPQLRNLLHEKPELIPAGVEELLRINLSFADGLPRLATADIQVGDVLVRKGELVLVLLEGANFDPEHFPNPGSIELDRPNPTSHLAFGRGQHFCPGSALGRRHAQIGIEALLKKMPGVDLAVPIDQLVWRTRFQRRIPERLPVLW

M. tuberculosis H37Rv [2] = test: Antimycobacterial activity, REMA (Resazurin Microtiter Assay) MIC; format: cell-based, Mycobacterium tuberculosis; settings: lowest concentration giving 90 % inhibition, 7 days 37 °C
M. tuberculosis H37Rv [3] = system: M. tuberculosis H37Rv; design: method as in PMID 29185746; settings: lead compounds; cited from earlier work
CYP121A1 [4] = target: T1, CYP121A1; settings: cited from earlier work; for Soret peak shift: lead compounds and cYY (type I shift for cYY); for Kd: lead compounds and natural substrate cYY; for Soret peak shift to: azole antifungal drugs binding Mtb CYP121A1
[5] = Mycobacterium tuberculosis, H37RV, 168 h, read-out: MIC

| Compound | Soret peak shift (CYP121A1 [1]) [nm] | Kd (CYP121A1 [1]) [µM] | MIC (M. tuberculosis H37Rv [2]; [5]) [µg/mL] | melting point [°C] | further results |
| --- | --- | --- | --- | --- | --- |
| CC(C)c1ccc(-c2nn(-c3ccccc3)cc2Cn2ccnc2)cc1 [10 e, 4‐((1H‐Imidazol‐1‐yl)methyl)‐3‐(4‐isopropylphenyl)‐1‐phenyl‐1H‐pyrazole] | 416.5 to 423 | 22.5 ± 3.5 | 1.56 (≈ 4.56 µM) |  | Soret maxima shifting by (CYP121A1 [1]): 6.5 nm |
| COc1ccc(-n2nc(C)cc2Cn2ccnc2)cc1 [Compound 25, 5‐((1H‐Imidazol‐1‐yl)methyl)‐1‐(4‐methoxyphenyl)‐3‐methyl‐1H‐pyrazole] | 416.5 to 418.5 | 22.9 ± 0.2 | 25 (≈ 93.2 µM) |  |  |
| c1ccc(-c2nn(-c3ccccc3)cc2Cn2cncn2)cc1 [Compound 2, 1‐((1,3‐diphenyl‐1H‐pyrazol‐4‐yl)methyl)‐1H‐1, 2, 4triazole] |  |  |  |  | MIC (M. tuberculosis H37Rv [3]): 50 µg/mL (≈ 166 µM); Soret peak shift (CYP121A1 [4]): 416.5 to 422.5 nm; Kd (CYP121A1 [4]): 73.5 ± 0.7 µM |
| OC(Cn1cncn1)(Cn1cncn1)c1ccc(F)cc1F [Fluconazole, fluconazole, reference compound] |  |  | > 100 |  |  |
| O=C(NCCCn1ccnc1)c1cn(-c2ccccc2)nc1-c1cccnc1 [13 b, N‐(3‐(1H‐Imidazol‐1‐yl)propyl)‐1‐phenyl‐3‐(pyridin‐3‐yl)‐1H‐pyrazole‐4‐carboxamide] | 416.5 to 417.5 | 85.6 ± 12.4 | > 100 | 80 to 82 |  |
| COc1ccc(-n2nc(Cn3ccnc3)cc2C)cc1 [Compound 23, 3‐((1H‐Imidazol‐1‐yl)methyl)‐1‐(4‐methoxyphenyl)‐5‐methyl‐1H‐pyrazole] | 416.5 to 418 | 34.5 ± 4.8 |  |  |  |
| O=C(NCc1ccncc1)c1cn(-c2ccccc2)nc1-c1ccncc1 [14 a, 1‐Phenyl‐3‐(pyridin‐4‐yl)‐N‐(pyridin‐4‐ylmethyl)‐1H‐pyrazole‐4‐carboxamide] | 416.5 to 419.5 | 219 ± 13.6 | > 100 | 206 to 208 |  |
| CC(C)Cc1ccc(-c2nn(-c3ccccc3)cc2Cn2ccnc2)cc1 [10 f, 4‐((1H‐Imidazol‐1‐yl)methyl)‐3‐(4‐isobutylphenyl)‐1‐phenyl‐1H‐pyrazole] | 416.5 to 423.5 | 0.22 ± 0.01 | 1.56 (≈ 4.38 µM) |  | Soret maxima shifting by (CYP121A1 [1]): 7 nm |
| c1ccc(-n2cc(Cn3cncn3)c(-c3cccnc3)n2)cc1 [11 b, 3‐(4‐((1H‐1,2,4‐Triazol‐1‐yl)methyl)‐1‐phenyl‐1H‐pyrazol‐3‐yl)pyridine] | 416.5 to 417.5 | 250 ± 51.6 | > 100 | 110 to 112 |  |
| Clc1ccccc1C(c1ccccc1)(c1ccccc1)n1ccnc1 [Clotrimazole, clotrimazole, reference compound] |  |  | 20 (≈ 58 µM) |  |  |
| O=C(NCCCn1ccnc1)c1cn(-c2ccccc2)nc1-c1ccncc1 [13 a, N‐(3‐(1H‐Imidazol‐1‐yl)propyl)‐1‐phenyl‐3‐(pyridin‐4‐yl)‐1H‐pyrazole‐4‐carboxamide] | 416.5 to 423.5 | 83.2 ± 3.9 | 100 (≈ 269 µM) | 104 to 106 | Soret maxima shifting by (CYP121A1 [1]): 7 nm |
| COc1ccc(-n2nc(Cn3cncn3)cc2C)cc1 [Compound 24, 1‐((1‐(4‐Methoxyphenyl)‐5‐methyl‐1H‐pyrazol‐3‐yl)methyl)‐1H‐1,2,4‐triazole] | 416.5 to 418 | 105 ± 7 | > 100 |  |  |
| c1ccc(-n2cc(Cn3ccnc3)c(-c3cccnc3)n2)cc1 [10 b, 3‐(4‐((1H‐Imidazol‐1‐yl)methyl)‐1‐phenyl‐1H‐pyrazol‐3‐yl)pyridine] | 416.5 to 421 | 53.6 ± 6.8 | 12.5 to 25 (≈ 41.5 to 83 µM) |  | MIC (M. tuberculosis H37Rv [2]): 12.5 µg/mL (≈ 41.5 µM) |
| CCCc1ccc(-c2nn(-c3ccccc3)cc2Cn2ccnc2)cc1 [10 d, 4‐((1H‐Imidazol‐1‐yl)methyl)‐1‐phenyl‐3‐(4‐propylphenyl)‐1H‐pyrazole] | 416.5 to 420 | 53.7 ± 5.9 | 0.781 (≈ 2.28 µM) |  |  |
| c1ccc(-n2cc(Cn3ccnc3)c(-c3ccc4c(c3)OCO4)n2)cc1 [10 i, 4‐((1H‐Imidazol‐1‐yl)methyl)‐3‐(benzo[d][1,3]dioxol‐5‐yl)‐1‐phenyl‐1H‐pyrazole] | 416.5 to 422.5 | 10.1 ± 0.3 | 3.12 (≈ 9.07 µM) | 62 to 64 |  |
| c1ccc(-n2cc(Cn3cncn3)c(-c3ccncc3)n2)cc1 [11 a, 4‐(4‐((1H‐1,2,4‐Triazol‐1‐yl)methyl)‐1‐phenyl‐1H‐pyrazol‐3‐yl)pyridine] | 416.5 to 417.5 | 115 ± 27 | > 100 | 98 to 100 |  |
| COc1ccc(-n2nc(C)cc2Cn2cncn2)cc1 [Compound 26, 1‐((1‐(4‐Methoxyphenyl)‐3‐methyl‐1H‐pyrazol‐5‐yl)methyl)‐1H‐1,2,4‐triazole] |  | 98.3 ± 7.4 | 100 (≈ 371 µM) | 47 to 48 |  |
| Clc1[nH]c2ccccc2c1-c1nn(-c2ccccc2)cc1Cn1ccnc1 [10 j, 3‐(4‐((1H‐Imidazol‐1‐yl)methyl)‐1‐phenyl‐1H‐pyrazol‐3‐yl)‐2‐chloro‐1H‐indole] | 416.5 to 423.5 | 3.31 ± 0.05 | 12.5 to 25 (≈ 33.4 to 66.9 µM) |  | Soret maxima shifting by (CYP121A1 [1]): 7 nm; MIC (M. tuberculosis H37Rv [2]): 25 µg/mL (≈ 66.9 µM) |
| c1ccc(-n2cc(Cn3ccnc3)c(-c3ccncc3)n2)cc1 [10 a, 4‐(4‐((1H‐Imidazol‐1‐yl)methyl)‐1‐phenyl‐1H‐pyrazol‐3‐yl)pyridine] | 416.5 to 419 | 60.5 ± 10.5 | 12.5 to 25 (≈ 41.5 to 83 µM) | 80 to 82 | MIC (M. tuberculosis H37Rv [2]): 12.5 µg/mL (≈ 41.5 µM) |
| CC(C)(C)c1ccc(-c2nn(-c3ccccc3)cc2Cn2ccnc2)cc1 [10 g, 4‐((1H‐Imidazol‐1‐yl)methyl)‐3‐(4‐(tert‐butyl)phenyl)‐1‐phenyl‐1H‐pyrazole] | 416.5 to 419.5 | 4.81 ± 0.31 | 1.56 (≈ 4.38 µM) | 116 to 117 |  |
| O=C(NCc1ccncc1)c1cn(-c2ccccc2)nc1-c1cccnc1 [14 b, 1‐Phenyl‐3‐(pyridin‐3‐yl)‐N‐(pyridin‐4‐ylmethyl)‐1H‐pyrazole‐4‐carboxamide] | 416.5 to 417.5 | 39 ± 8.2 | > 100 | 206 to 208 |  |
| Clc1ccc(COC(Cn2ccnc2)c2ccc(Cl)cc2Cl)cc1 (centres unmarked) [econazole] |  |  |  |  | Soret peak shift to (CYP121A1 [4]): 421–423.5 nm |
| CC(=O)N1CCN(c2ccc(OCC3COC(Cn4ccnc4)(c4ccc(Cl)cc4Cl)O3)cc2)CC1 (centres unmarked) [ketoconazole] |  |  |  |  | Soret peak shift to (CYP121A1 [4]): 421–423.5 nm |
| Clc1ccc(COC(Cn2ccnc2)c2ccc(Cl)cc2Cl)c(Cl)c1 (centres unmarked) [miconazole] |  |  |  |  | Soret peak shift to (CYP121A1 [4]): 421–423.5 nm |
| c1ccc(-c2nn(-c3ccccc3)cc2Cn2ccnc2)cc1 [Compound 1, (1,3‐diphenyl)‐4‐((1,3‐imidazol‐1‐yl)methyl)‐1H‐pyrazole] |  |  |  |  | MIC (M. tuberculosis H37Rv [3]): 12.5 µg/mL (≈ 41.6 µM); Soret peak shift (CYP121A1 [4]): 416.5 to 424 nm; Kd (CYP121A1 [4]): 2.6 ± 0.2 µM |
| CCc1ccc(-c2nn(-c3ccccc3)cc2Cn2ccnc2)cc1 [10 c, 4‐((1H‐Imidazol‐1‐yl)methyl)‐3‐(4‐ethylphenyl)‐1‐phenyl‐1H‐pyrazole] | 416.5 to 420 | 18.3 ± 3.4 | 1.56 (≈ 4.76 µM) | 74 to 76 |  |
| c1ccc(-c2ccc(-c3nn(-c4ccccc4)cc3Cn3ccnc3)cc2)cc1 [10 h, 4‐((1H‐Imidazol‐1‐yl)methyl)‐3‐([1,1′‐biphenyl]‐4‐yl)‐1‐phenyl‐1H‐pyrazole] | 416.5 to 423.5 | 2.91 ± 0.14 | 3.12 (≈ 8.3 µM) | 114 to 115 | Soret maxima shifting by (CYP121A1 [1]): 7 nm |
